For eleven compounds, IC50 results are on record in patent US20250197406A1, “INDAZOLES AS HEMATOPOIETIC PROGENITOR KINASE 1 (HPK1) INHIBITORS AND METHODS FOR USING SAME” (1ST Biotherapeutics, Inc., priority 2022, published 2025).

Sequence of recombinant human HPK1 (Q92918 whole entry): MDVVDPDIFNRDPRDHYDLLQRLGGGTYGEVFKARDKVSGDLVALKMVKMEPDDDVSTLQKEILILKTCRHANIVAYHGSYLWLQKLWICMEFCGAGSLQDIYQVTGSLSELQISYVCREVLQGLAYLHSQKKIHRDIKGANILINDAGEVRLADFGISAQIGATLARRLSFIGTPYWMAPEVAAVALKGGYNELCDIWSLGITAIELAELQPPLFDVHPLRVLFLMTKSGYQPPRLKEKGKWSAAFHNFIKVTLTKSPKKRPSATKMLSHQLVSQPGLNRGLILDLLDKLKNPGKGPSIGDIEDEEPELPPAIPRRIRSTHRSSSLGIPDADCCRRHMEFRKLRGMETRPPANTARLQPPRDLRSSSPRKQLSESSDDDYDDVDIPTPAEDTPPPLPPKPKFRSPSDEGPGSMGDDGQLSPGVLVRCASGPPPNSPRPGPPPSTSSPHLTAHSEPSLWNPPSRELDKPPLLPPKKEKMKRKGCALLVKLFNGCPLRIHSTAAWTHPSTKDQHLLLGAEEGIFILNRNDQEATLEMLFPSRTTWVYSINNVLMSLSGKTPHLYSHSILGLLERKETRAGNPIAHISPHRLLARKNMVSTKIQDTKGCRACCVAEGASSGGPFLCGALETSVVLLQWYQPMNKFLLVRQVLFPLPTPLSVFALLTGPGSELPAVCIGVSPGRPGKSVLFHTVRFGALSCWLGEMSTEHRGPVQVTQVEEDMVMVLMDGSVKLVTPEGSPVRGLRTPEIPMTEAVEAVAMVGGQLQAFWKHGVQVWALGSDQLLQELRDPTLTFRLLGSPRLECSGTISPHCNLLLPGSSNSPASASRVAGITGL

This experiment concerns the target recombinant human HPK1 (Homo sapiens (Human), UniProt Q92918). Nature of the experiment: HPK1 kinase assay (Promega ADP-Glo kinase assay). The note with it: In vitro activity against HPK1, 5 ng HPK1, MBP substrate, ATP 25 μM, 30° C. 40 minutes. It counts as biochemical. As for the experimental part: HPK1 kinase activity was measured by Promega's ADP-Glo™ kinase assay. In this assay, 5 ng of recombinant human HPK1 (signalchem) is incubated with 5 μL of compounds (0.5% DMSO), 5 μL of MBP (0.5 μg/μl) and 5 μL of ATP (25 μM) in buffer (40 mM Tris, 7.5; 20 mM MgCl2; 0.1 mg/ml BSA; 50 μM DTT.). The assay was started by incubating the reaction mixture in a 96-well plate at 30° C. for 40 minutes. After the incubation, 25 μL ADP-Glo reagent was added and the reaction was incubated at room temperature for 40-min to stop the reaction and degrade residual ATP. The ADP product was then converted to ATP by adding 50 μL per well of detection reagent. Luminescence was detected after 30-min room temperature incubation with the Molecular device I3X plate reader. The IC50 values were calculated from a series of percent inhibition values determined at a range of inhibitor concentration using software routines as implemented in the GraphPad Prism 7 software and SigmaPlot13.0.
(In general: ADP-Glo first removes unused ATP, then detects ADP through luciferase.)
As usually defined, the IC50 is the concentration needed to halve the response being measured. For the compound `COC(c1c(F)c(C)c(-c2cn3cc(NC(=O)[C@@H]4C[C@@H]4F)nc3cn2)c2cn[nH]c12)C1CC1` (stereo partly drawn) [Example 2, (1S,2S)-N-(6-(7-(cyclopropyl(methoxy)methyl)-6-fluoro-5-methyl-1H-indazol-4-yl)imidazo[1,2-a]pyrazin-2-yl)-2-fluorocyclopropane-1-carboxamide], the IC50 was less than 100 nM.
The figure for `COCC(=O)Nc1cn2cc(-c3c(Cl)c(F)c(NC(C)C)c4[nH]ncc34)ncc2n1` [Example 109, N-(6-(5-chloro-6-fluoro-7-(isopropylamino)-1H-indazol-4-yl)imidazo[1,2-a]pyrazin-2-yl)-2-methoxyacetamide] is less than 100 nM; for `CC(=O)Nc1cn2cc(-c3c(C(F)(F)F)c(F)c(NC(C)C)c4[nH]ncc34)ncc2n1` [Example 83, N-(6-(6-fluoro-7-(isopropylamino)-5-(trifluoromethyl)-1H-indazol-4-yl)imidazo[1,2-a]pyrazin-2-yl)acetamide] it is less than 100 nM; for `CC(C)Nc1c(F)c(Cl)c(-c2cn3cc(NC(=O)Cc4cccnc4)nc3cn2)c2cn[nH]c12` [Example 89, N-(6-(5-chloro-6-fluoro-7-(isopropylamino)-1H-indazol-4-yl)imidazo[1,2-a]pyrazin-2-yl)-2-(pyridin-3-yl)acetamide] it is less than 100 nM.
The same measure for `CC(C)Nc1c(F)c(Cl)c(-c2cn3cc(N4CCOCC4)nc3cn2)c2cn[nH]c12` [Example 91, 5-chloro-6-fluoro-N-isopropyl-4-(2-morpholinoimidazo[1,2-a]pyrazin-6-yl)-1H-indazol-7-amine]: 501 to 1000 nM.
The figure for `CCC(=O)Nc1cn2cc(-c3c(OC)c(F)c(NC(C)C)c4[nH]ncc34)ncc2n1` [Example 162, N-(6-(6-fluoro-7-(isopropylamino)-5-methoxy-1H-indazol-4-yl)imidazo[1,2-a]pyrazin-2-yl)propionamide] is less than 100 nM; for `O=C(Nc1cn2cc(-c3c(C(F)(F)F)c(F)c(C(O)C4CC4)c4[nH]ncc34)ncc2n1)[C@@H]1C[C@@H]1CO` (stereo partly drawn) [Example 118, (1R,2S)-N-(6-(7-(cyclopropyl(hydroxy)methyl)-6-fluoro-5-(trifluoromethyl)-1H-indazol-4-yl)imidazo[1,2-a]pyrazin-2-yl)-2-(hydroxymethyl)cyclopropane-1-carboxamide] it is less than 100 nM.
As to `CC(C)Nc1c(F)c(Cl)c(-c2cn3cc(NC(=O)c4ccccn4)nc3cn2)c2cn[nH]c12` [Example 58, N-(6-(5-chloro-6-fluoro-7-(isopropylamino)-1H-indazol-4-yl)imidazo[1,2-a]pyrazin-2-yl)picolinamide], the IC50 was in the range of 101 to 500 nM.
The same measure for `Cc1c(F)c(C(C)CN2C(=O)c3ccccc3C2=O)c2[nH]ncc2c1-c1cn2cc(NC(=O)[C@@H]3C[C@@H]3F)nc2cn1` (stereo partly drawn) [Example 22, (1S,2S)-N-(6-(7-(1-(1,3-dioxoisoindolin-2-yl)propan-2-yl)-6-fluoro-5-methyl-1H-indazol-4-yl)imidazo[1,2-a]pyrazin-2-yl)-2-fluorocyclopropane-1-carboxamide]: less than 100 nM; for `COC(=O)c1c(F)c(NC(C)C)c2[nH]ncc2c1-c1cn2cc(NC(=O)[C@@H]3C[C@@H]3F)nc2cn1` [Example 59, methyl 6-fluoro-4-(2-((1S,2S)-2-fluorocyclopropane-1-carboxamido)imidazo[1,2-a]pyrazin-6-yl)-7-(isopropylamino)-1H-indazole-5-carboxylate]: less than 100 nM.
The same measure for `CN(C)c1c(F)c(C(F)F)c(-c2cn3cc(NC(=O)[C@@H]4C[C@@H]4F)nc3cn2)c2cn[nH]c12` [Example 17, (1S,2S)-N-(6-(5-(difluoromethyl)-7-(dimethylamino)-6-fluoro-1H-indazol-4-yl)imidazo[1,2-a]pyrazin-2-yl)-2-fluorocyclopropane-1-carboxamide]: less than 100 nM.
